Measurements reported in patent publication US20230310481A1 (priority 2020, published 2023).

Legend:
Format in all cases: cell-based
[1] = Viability evaluation (MTS/PMS) of replicon RNA-transfected Huh7 cells, Example 2; details: human, highest tested concentration 50 µM
Excerpt: Obtained values are expressed as percent inhibition of untreated RNA-transfected control condition.

[2] = system: rat HEV replicon LAB350/luc; assay: Antiviral activity against rat HEV replicon LAB350/luc in Huh7 cells (Gaussia luciferase); details: Huh-7, 72 h, 3 days, 50% reduction in Luc signal, two experiments
[3] = system: HEV Genotype 3 replicon Kernow-C1 p6/luc; assay: Antiviral activity against HEV Genotype 3 replicon Kernow-C1 p6/luc in Huh7 cells (Gaussia luciferase); details: Huh-7, 96 h, read-out: relative EC50

Structure (SMILES) | CC50 [1] | EC50 [2] | EC50 [3]
CCOc1nc(N)nc2c1ncn2[C@@H]1O[C@](F)(COP(=O)(N[C@@H](C)C(=O)OC2CCCCC2)Oc2ccccc2)[C@@H](O)[C@@]1(C)O (stereo partly shown) [Compound 2] | > 50 µM |  | 
CCOc1nc(N)nc2c1ncn2[C@@H]1O[C@](F)(COP(=O)(OCOC(=O)OC(C)C)OCOC(=O)OC(C)C)[C@@H](O)[C@@]1(C)F [Compound 3] | > 50 µM |  | 
CCOc1nc(N)nc2c1ncn2[C@@H]1O[C@]2(F)CO[P@@](=O)(NCC(=O)OC(C)C)O[C@H]2[C@@]1(C)F [Compound 5] | > 50 µM | 0.046 µM | 0.022 µM
CCOc1nc(N)nc2c1ncn2[C@@H]1O[C@](F)(COP(=O)(OCOC(=O)OC(C)C)OCOC(=O)OC(C)C)[C@@H](O)[C@@]1(C)O [Compound 6] | > 50 µM |  | 
CC(C)OC(=O)[C@H](C)N[P@](=O)(OC[C@@]1(F)O[C@@H](n2ccc(=O)[nH]c2=O)[C@](C)(O)[C@@H]1O)Oc1ccccc1 [Compound 7] | > 50 µM |  | 
CCOc1nc(N)nc2c1ncn2[C@@H]1O[C@]2(F)CO[P@@](=O)(N[C@H](C)C(=O)OC(C)C)O[C@H]2[C@@]1(C)F [Compound 8] | > 50 µM |  | 
CC(C)OC(=O)OCOP(=O)(OCOC(=O)OC(C)C)OC[C@@]1(F)O[C@@H](n2ccc(=O)[nH]c2=O)[C@](C)(O)[C@@H]1O [Compound 9] | > 50 µM |  | 
CC(C)OC(=O)OCOP(=O)(OCOC(=O)OC(C)C)OC[C@@]1(F)O[C@@H](n2ccc(=O)[nH]c2=O)[C@](C)(F)[C@@H]1O [Compound 11] | > 50 µM |  | 
